US20210298332A1, “AGENT FOR SUPPRESSING HEAT-RESISTANT ACIDOPHILIC BACTERIA, METHOD FOR PREVENTING CONTAMINATION WITH HEAT-RESISTANT ACIDOPHILIC BACTERIA, AND BEVERAGE” (SUNTORY HOLDINGS LIMITED, priority 2018, published 2021)
Values after ≈ are worked out from the molar mass of the structure shown.

Tested on: Thermo-Acidophilic Bacilli (Alicyclobacillus acidoterrestris ATCC 49025)
Test: Evaluation of antibacterial action (agar plate dilution MIC)
Type: cell-based
Experimental: Thermo-Acidophilic Bacilli (Alicyclobacillus acidoterrestris ATCC 49025) were pre-incubated as test bacteria (conditions: YSG broth, 50±1° C., two days, aerobic conditions), so that a test bacterial solution was obtained. A 10 mg/mL xanthohumol solution and serial two-fold dilutions thereof were prepared using 99.5% ethanol. Each of the solution and dilutions was added to a medium (YSG agar medium) whose temperature is maintained at 50±1° C. after being sterilized and dissolved at a ratio of 1/99 (volume of xanthohumol solution/volume of medium solution) and mixed sufficiently. The resulting mixtures were each dispensed into a petri dish and solidified, whereby agar plate media were produced. Each of the agar plate media was smeared with the pre-incubated test bacterial solution, followed by incubation at 50±1° C. for five days under aerobic conditions. The lowest concentration where the growth of the bacteria was prevented was taken as the minimum inhibitory concentration (MIC).

MIC (ATCC49025, 120 h, YSG agar medium, 50±1° C., five days, aerobic conditions): 3.13 µg/mL (≈ 8.83 µM)
Structure (SMILES): COc1cc(O)c(CC=C(C)C)c(O)c1C(=O)/C=C/c1ccc(O)cc1 [Xanthohumol]
growth of Thermo-Acidophilic Bacilli: inhibit the growth
